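How tested: cells in 96-well plates exposed to compound for 48 hours at five concentrations. GI50 = concentration required for 50% inhibition of growth. The concentration for full growth arrest is given as TGI.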
How the values were obtained:
Test in all cases: NCI tumour cell line growth inhibition, 48 h
COLO 205 colon = system: COLO 205 colon
786-0 renal = system: 786-0 renal
SW-620 colon = system: SW-620 colon
OVCAR-8 ovarian = system: OVCAR-8 ovarian
BT-549 breast = system: BT-549 breast
DU-145 prostate = system: DU-145 prostate
LOX IMVI melanoma = system: LOX IMVI melanoma
SNB-75 CNS = system: SNB-75 CNS
SK-MEL-2 melanoma = system: SK-MEL-2 melanoma
IGROV1 ovarian = system: IGROV1 ovarian

With CC1(C)N=C(N)N=C(N)N1c1ccc(OCCCCNC(=O)c2ccc(S(=O)(=O)F)cc2)c(Cl)c1 the GI50 (COLO 205 colon) was 68.4 µM, the TGI (COLO 205 colon) was > 100 µM and the GI50 (786-0 renal) was 5.72 µM. For the same molecule, the TGI (786-0 renal) was > 100 µM, the GI50 (SW-620 colon) was 3.51 µM and the TGI (SW-620 colon) was > 100 µM. The GI50 (OVCAR-8 ovarian) was 4.82 µM, the TGI (OVCAR-8 ovarian) was > 100 µM and the GI50 (BT-549 breast) was > 100 µM. The TGI (BT-549 breast) was > 100 µM, the GI50 (DU-145 prostate) was 8.16 µM and the TGI (DU-145 prostate) was > 100 µM. The GI50 (LOX IMVI melanoma) was 1.9 µM, the TGI (LOX IMVI melanoma) was > 100 µM and the GI50 (SNB-75 CNS) was 16.5 µM. The TGI (SNB-75 CNS) was > 100 µM, the GI50 (SK-MEL-2 melanoma) was 77.2 µM and the TGI (SK-MEL-2 melanoma) was > 100 µM. For the same molecule, the GI50 (IGROV1 ovarian) was 4.78 µM and the TGI (IGROV1 ovarian) was > 100 µM.
O=C(Nc1cccc([N+](=O)[O-])c1)c1cc2ccccc2cc1O was tested, and the GI50 (COLO 205 colon) was 1.88 µM, the TGI (COLO 205 colon) was 3.44 µM and the GI50 (786-0 renal) was 1.28 µM. For the same molecule, the TGI (786-0 renal) was 4.74 µM, the GI50 (SW-620 colon) was 2.72 µM and the TGI (SW-620 colon) was 17 µM. It also gave a GI50 (OVCAR-8 ovarian) of 3.31 µM, a TGI (OVCAR-8 ovarian) of 26.1 µM and a GI50 (BT-549 breast) of 1.55 µM. The TGI (BT-549 breast) was 5.39 µM, the GI50 (DU-145 prostate) was 3.09 µM and the TGI (DU-145 prostate) was > 49.6 µM. For the same molecule, the GI50 (LOX IMVI melanoma) was 1.87 µM, the TGI (LOX IMVI melanoma) was 7.69 µM and the GI50 (SNB-75 CNS) was 2.84 µM. For the same molecule, the TGI (SNB-75 CNS) was 55.2 µM, the GI50 (SK-MEL-2 melanoma) was 0.876 µM and the TGI (SK-MEL-2 melanoma) was 2.83 µM. The GI50 (IGROV1 ovarian) was 1.3 µM and the TGI (IGROV1 ovarian) was > 26.1 µM.
For N#C/C(=C\c1cccnc1)c1nc2ccccc2o1, the GI50 (COLO 205 colon) was > 100 µM, the TGI (COLO 205 colon) was > 100 µM and the GI50 (786-0 renal) was > 100 µM. The TGI (786-0 renal) was > 100 µM, the GI50 (SW-620 colon) was > 100 µM and the TGI (SW-620 colon) was > 100 µM. For the same molecule, the GI50 (OVCAR-8 ovarian) was > 100 µM, the TGI (OVCAR-8 ovarian) was > 100 µM and the GI50 (BT-549 breast) was > 100 µM. For the same molecule, the TGI (BT-549 breast) was > 100 µM, the GI50 (DU-145 prostate) was > 100 µM and the TGI (DU-145 prostate) was > 100 µM. For the same molecule, the GI50 (LOX IMVI melanoma) was > 100 µM, the TGI (LOX IMVI melanoma) was > 100 µM and the GI50 (SNB-75 CNS) was > 100 µM. The TGI (SNB-75 CNS) was > 100 µM, the GI50 (SK-MEL-2 melanoma) was > 100 µM and the TGI (SK-MEL-2 melanoma) was > 100 µM. For the same molecule, the GI50 (IGROV1 ovarian) was > 100 µM and the TGI (IGROV1 ovarian) was > 100 µM.
For COc1ccc(/C=C/c2cnc3ccccc3n2)cc1OC, the TGI (COLO 205 colon) was > 100 µM, the TGI (786-0 renal) was > 100 µM and the TGI (SW-620 colon) was > 100 µM. The TGI (OVCAR-8 ovarian) was > 100 µM, the TGI (BT-549 breast) was > 100 µM and the TGI (DU-145 prostate) was > 100 µM. For the same molecule, the TGI (LOX IMVI melanoma) was > 100 µM, the TGI (SNB-75 CNS) was > 100 µM and the TGI (SK-MEL-2 melanoma) was > 100 µM. For the same molecule, the TGI (IGROV1 ovarian) was > 100 µM.
For O=c1[nH]cnc2nc(-c3ccc(N(CCCl)CCCl)cc3)[nH]c12, the GI50 (COLO 205 colon) was > 100 µM, the TGI (COLO 205 colon) was > 100 µM and the GI50 (786-0 renal) was 18.3 µM. The TGI (786-0 renal) was 53.2 µM, the GI50 (SW-620 colon) was 6.46 µM and the TGI (SW-620 colon) was > 100 µM. For the same molecule, the GI50 (OVCAR-8 ovarian) was 8.89 µM, the TGI (OVCAR-8 ovarian) was > 100 µM and the GI50 (BT-549 breast) was 84.8 µM. For the same molecule, the TGI (BT-549 breast) was > 100 µM, the GI50 (DU-145 prostate) was 15.9 µM and the TGI (DU-145 prostate) was > 100 µM. The GI50 (LOX IMVI melanoma) was 1.75 µM, the TGI (LOX IMVI melanoma) was > 100 µM and the GI50 (SNB-75 CNS) was 18.1 µM. The TGI (SNB-75 CNS) was 74.2 µM, the GI50 (SK-MEL-2 melanoma) was > 100 µM and the TGI (SK-MEL-2 melanoma) was > 100 µM. For the same molecule, the GI50 (IGROV1 ovarian) was 26.9 µM and the TGI (IGROV1 ovarian) was > 100 µM.
CN(C)c1ccc(N=C(C#N)c2nc(N)nc(N3CCN(c4ccccc4)CC3)n2)cc1 was tested, and the GI50 (COLO 205 colon) was > 42.4 µM, the TGI (COLO 205 colon) was > 50 µM and the GI50 (786-0 renal) was > 50 µM. The TGI (786-0 renal) was > 50 µM, the GI50 (SW-620 colon) was 22.1 µM and the TGI (SW-620 colon) was > 50 µM. For the same molecule, the GI50 (OVCAR-8 ovarian) was 18 µM, the TGI (OVCAR-8 ovarian) was > 37.2 µM and the GI50 (BT-549 breast) was 23.6 µM. The TGI (BT-549 breast) was > 50 µM, the GI50 (DU-145 prostate) was 11.6 µM and the TGI (DU-145 prostate) was > 28.1 µM. The GI50 (LOX IMVI melanoma) was 19.6 µM, the TGI (LOX IMVI melanoma) was > 45.1 µM and the GI50 (SNB-75 CNS) was 6.9 µM. For the same molecule, the TGI (SNB-75 CNS) was 25.6 µM, the GI50 (SK-MEL-2 melanoma) was > 50 µM and the TGI (SK-MEL-2 melanoma) was > 50 µM. The GI50 (IGROV1 ovarian) was 14.8 µM and the TGI (IGROV1 ovarian) was > 50 µM.
O=c1oc2cc(OS(=O)(=O)c3ccccc3)ccc2c2c1CCCCC2 was tested, and the GI50 (COLO 205 colon) was 3.51 µM, the TGI (COLO 205 colon) was > 100 µM and the GI50 (786-0 renal) was 6.24 µM. The TGI (786-0 renal) was > 100 µM, the GI50 (SW-620 colon) was 4.89 µM and the TGI (SW-620 colon) was > 100 µM. For the same molecule, the GI50 (OVCAR-8 ovarian) was 86.1 µM, the TGI (OVCAR-8 ovarian) was > 100 µM and the GI50 (BT-549 breast) was 5.44 µM. For the same molecule, the TGI (BT-549 breast) was > 100 µM, the GI50 (DU-145 prostate) was > 100 µM and the TGI (DU-145 prostate) was > 100 µM. For the same molecule, the GI50 (LOX IMVI melanoma) was 8.71 µM, the TGI (LOX IMVI melanoma) was > 100 µM and the GI50 (SNB-75 CNS) was 16.9 µM. The TGI (SNB-75 CNS) was > 100 µM, the GI50 (SK-MEL-2 melanoma) was > 100 µM and the TGI (SK-MEL-2 melanoma) was > 100 µM. For the same molecule, the GI50 (IGROV1 ovarian) was > 100 µM and the TGI (IGROV1 ovarian) was > 100 µM.
With O=C(O)c1ccc2cccnc2c1O the GI50 (COLO 205 colon) was 4.23 µM, the TGI (COLO 205 colon) was 10.1 µM and the GI50 (786-0 renal) was 2.4 µM. For the same molecule, the TGI (786-0 renal) was 24.8 µM, the GI50 (SW-620 colon) was 2 µM and the TGI (SW-620 colon) was > 100 µM. The GI50 (OVCAR-8 ovarian) was 1.27 µM, the TGI (OVCAR-8 ovarian) was > 59.1 µM and the GI50 (BT-549 breast) was 0.561 µM. For the same molecule, the TGI (BT-549 breast) was > 20 µM, the GI50 (DU-145 prostate) was 0.828 µM and the TGI (DU-145 prostate) was 42.3 µM. For the same molecule, the GI50 (LOX IMVI melanoma) was 0.897 µM, the TGI (LOX IMVI melanoma) was 28.4 µM and the GI50 (SNB-75 CNS) was 1.51 µM. The TGI (SNB-75 CNS) was > 100 µM, the GI50 (SK-MEL-2 melanoma) was 1.95 µM and the TGI (SK-MEL-2 melanoma) was 7.46 µM. For the same molecule, the GI50 (IGROV1 ovarian) was 1.38 µM and the TGI (IGROV1 ovarian) was 25.8 µM.
CCC1OC(/C(C)=C/C(C)/C=C/C2C(C)C2/C=C/C2OC(CC(=O)O)CC(O)C2O)CC=C1C (stereo not given) was tested, and the GI50 (COLO 205 colon) was > 50 µM, the TGI (COLO 205 colon) was > 50 µM and the GI50 (786-0 renal) was > 50 µM. For the same molecule, the TGI (786-0 renal) was > 50 µM, the GI50 (SW-620 colon) was > 50 µM and the TGI (SW-620 colon) was > 50 µM. The GI50 (OVCAR-8 ovarian) was > 50 µM, the TGI (OVCAR-8 ovarian) was > 50 µM and the GI50 (BT-549 breast) was > 50 µM. The TGI (BT-549 breast) was > 50 µM, the GI50 (DU-145 prostate) was > 50 µM and the TGI (DU-145 prostate) was > 50 µM. For the same molecule, the GI50 (LOX IMVI melanoma) was > 50 µM, the TGI (LOX IMVI melanoma) was > 50 µM and the GI50 (SNB-75 CNS) was > 50 µM. For the same molecule, the TGI (SNB-75 CNS) was > 50 µM, the GI50 (SK-MEL-2 melanoma) was > 50 µM and the TGI (SK-MEL-2 melanoma) was > 50 µM. The GI50 (IGROV1 ovarian) was > 50 µM and the TGI (IGROV1 ovarian) was > 50 µM.
